{"source": "patent US20240115521A1", "about": "“COMPOUNDS FOR THE TREATMENT OF MYCOBACTERIAL DISEASES” (priority 2022, published 2024)", "key": {"intracellular BCG": {"tested_on": "intracellular BCG", "assay": "microbe, parasite or virus in culture", "assay_type": "cell-based", "settings": "Mycobacterium tuberculosis variant bovis BCG, read-out: Activity on intracellular BCG (% inhibition)"}, "intracellular Mtb": {"tested_on": "intracellular Mtb", "assay": "Inhibition of Mtb growth inside primary human monocytes (3H-Uridine)", "assay_type": "cell-based", "settings": "Mycobacterium tuberculosis, Monocyte, all drugs tested at 20 μM", "protocol": "FIGS. 1A & 1B show the structure and anti-mycobacterial activity of select troponoids. Shown are the structures (FIG. 1A) and calculated percent inhibitions of M. tuberculosis (Mtb) growth inside primary human monocytes by 4 selected troponoids (FIG. 1B).\nNumerous troponoids have been synthesized and screened on Mtb and MAC and identified three with activities at a concentration of ≤5 μM. […] Briefly, primary monocytes were infected with mycobacteria (Mtb) for 4 hours, then co-cultured with indicated troponoids (2.5-20 μM) for 3 days. Then mammalian cells were lysed with saponin and residual mycobacteria quantified via ^3H-Uridine as previously described (Abate et al. 2015)."}, "[1]": {"assay": "Mouse liver microsome stability", "assay_type": "in vitro ADME", "settings": "result in words", "description": "(§1) Because the murine model will be used for initial drug efficacy studies and our goal is to develop drugs for human use, in vitro liver microsomal studies we performed using both mouse and human liver microsomes."}, "Caco2": {"tested_on": "Caco2", "assay": "Caco2 in vitro permeability assay", "settings": "for Caco2 PappA > B: apical to basolateral; for Caco2 PappB > A: basolateral to apical; for GI absorption by Caco-2 in vitro testing: result in words"}, "[2]": {"assay": "Caco2 in vitro permeability assay", "settings": "human, Caco-2"}, "[3]": {"assay": "Human liver microsome assay", "assay_type": "in vitro ADME", "settings": "for half-life: human liver microsomes; for Stability in human liver microsomal studies: result in words", "description": "as §1"}}}
{"smiles": "O=C1Nc2ccccc2CCC1SC1CCc2ccccc2NC1=O", "note": "(stereo not shown) [#846]", "values": [{"measurement": "inhibition at 20 µM", "setting": "intracellular BCG", "value": 0, "unit": "%"}]}
{"smiles": "COc1cc(-c2ccccc(SSc3ccccc(-c4cc(OC)c(OC)c(OC)c4)c3=O)c2=O)cc(OC)c1OC", "note": "[#843]", "values": [{"measurement": "inhibition at 20 µM", "setting": "intracellular BCG", "value": 26.5, "unit": "%"}]}
{"smiles": "Cc1cc(O)c(=O)c(O)cc1C(=O)N1CCSC1", "note": "[#712]", "values": [{"measurement": "inhibition at 20 µM", "setting": "intracellular BCG", "value": 32.1, "unit": "%"}]}
{"smiles": "Cc1ccc(S(=O)(=O)c2cccc(O)c(=O)c2O)cc1", "note": "[#697]", "values": [{"measurement": "inhibition at 20 µM", "setting": "intracellular BCG", "value": 0, "unit": "%"}]}
{"smiles": "Cc1ccc(C(=O)Oc2cc(C(C)C)cccc2=O)cc1", "note": "[#847]", "values": [{"measurement": "inhibition at 20 µM", "setting": "intracellular BCG", "value": 28.8, "unit": "%"}]}
{"smiles": "O=c1cccccc1N1CCOCC1", "note": "[#765]", "values": [{"measurement": "inhibition at 20 µM", "setting": "intracellular BCG", "value": 24.3, "unit": "%"}]}
{"smiles": "O=c1c(O)cccc(S)c1O", "note": "[#701]", "values": [{"measurement": "inhibition at 20 µM", "setting": "intracellular BCG", "value": 38.8, "unit": "%"}]}
{"smiles": "O=c1c(S)ccccc1-c1ccccc1", "note": "[#844]", "values": [{"measurement": "inhibition at 20 µM", "setting": "intracellular BCG", "value": 19.1, "unit": "%"}]}
{"smiles": "O=C1Nc2ccccc2CCC1S", "note": "(stereo not shown) [#845]", "values": [{"measurement": "inhibition at 20 µM", "setting": "intracellular BCG", "value": 9, "unit": "%"}]}
{"smiles": "CCCCCCSc1cccc(O)c(=O)c1O", "note": "[#840]", "values": [{"measurement": "inhibition at 20 µM", "setting": "intracellular BCG", "value": 74.7, "unit": "%"}, {"measurement": "inhibition at 20 µM", "setting": "intracellular Mtb", "value": 89.4, "unit": "%"}, {"measurement": "Stability in mice liver microsomal studies", "setting": "[1]", "value": "stable"}, {"measurement": "Caco2 PappA > B", "setting": "Caco2", "value": "1.45E−05", "unit": "sec*cm^2"}, {"measurement": "Caco2 PappB > A", "setting": "Caco2", "value": "2.11E−04", "unit": "sec*cm^2"}, {"measurement": "GI absorption by Caco-2 in vitro testing", "setting": "Caco2", "value": "good GI absorption"}, {"measurement": "efflux ratio", "setting": "[2]", "value": 14.6}, {"measurement": "half-life", "setting": "[3]", "value": "> 30", "unit": "min"}, {"measurement": "Stability in human liver microsomal studies", "setting": "[3]", "value": "stable"}]}
{"smiles": "CC(=O)CC(c1ccccc1)c1c(O)c2ccccc2oc1=O", "note": "(stereo not shown) [Warfarin, reference compound]", "values": [{"measurement": "Caco2 PappA > B", "setting": "Caco2", "value": "9.37E−05", "unit": "sec*cm^2"}, {"measurement": "Caco2 PappB > A", "setting": "Caco2", "value": "2.70E−04", "unit": "sec*cm^2"}]}
{"smiles": "O=C(O)COc1cc(O)c2c(=O)cc(-c3ccccc3)oc2c1", "note": "[#859]", "values": [{"measurement": "inhibition at 20 µM", "setting": "intracellular BCG", "value": 11.3, "unit": "%"}]}
{"smiles": "O=c1cccccc1N1CCCC1", "note": "[#766]", "values": [{"measurement": "inhibition at 20 µM", "setting": "intracellular BCG", "value": 14, "unit": "%"}]}
{"smiles": "CCCCCCS(=O)(=O)c1cccc(O)c(=O)c1O", "note": "[#699]", "values": [{"measurement": "inhibition at 20 µM", "setting": "intracellular BCG", "value": 0, "unit": "%"}]}
{"smiles": "CCS(=O)(=O)N1CCN(C(=O)c2cc(O)c(=O)c(O)cc2C)CC1", "note": "[#802]", "values": [{"measurement": "inhibition at 20 µM", "setting": "intracellular BCG", "value": 0, "unit": "%"}]}
{"smiles": "COc1cc(-c2ccccc(S)c2=O)cc(OC)c1OC", "note": "[#842]", "values": [{"measurement": "inhibition at 20 µM", "setting": "intracellular BCG", "value": 25, "unit": "%"}]}
{"smiles": "Cc1ccc(Sc2cccc(O)c(=O)c2O)cc1", "note": "[#838]", "values": [{"measurement": "inhibition at 20 µM", "setting": "intracellular BCG", "value": 29.3, "unit": "%"}]}
{"smiles": "COc1ccc(-c2ccccc(N)c2=O)cc1", "note": "[#762]", "values": [{"measurement": "inhibition at 20 µM", "setting": "intracellular BCG", "value": 10.8, "unit": "%"}]}
{"smiles": "CCCCSc1cccc(O)c(=O)c1O", "note": "[#693]", "values": [{"measurement": "inhibition at 20 µM", "setting": "intracellular BCG", "value": 89.2, "unit": "%"}]}
{"smiles": "CCCCSc1ccc(SCCCC)c(O)c(=O)c1O", "note": "[#694]", "values": [{"measurement": "inhibition at 20 µM", "setting": "intracellular BCG", "value": 91.8, "unit": "%"}, {"measurement": "inhibition at 20 µM", "setting": "intracellular Mtb", "value": 86.5, "unit": "%"}, {"measurement": "Stability in mice liver microsomal studies", "setting": "[1]", "value": "stable"}, {"measurement": "Caco2 PappA > B", "setting": "Caco2", "value": "5.83E−06", "unit": "sec*cm^2"}, {"measurement": "Caco2 PappB > A", "setting": "Caco2", "value": "1.11E−04", "unit": "sec*cm^2"}, {"measurement": "GI absorption by Caco-2 in vitro testing", "setting": "Caco2", "value": "good GI absorption"}, {"measurement": "efflux ratio", "setting": "[2]", "value": 19}, {"measurement": "half-life", "setting": "[3]", "value": 9.8, "unit": "min"}, {"measurement": "Stability in human liver microsomal studies", "setting": "[3]", "value": "stable"}]}
{"smiles": "COc1ccc(-c2cc(=O)c3c(O)cc(O)cc3o2)cc1", "note": "[#861]", "values": [{"measurement": "inhibition at 20 µM", "setting": "intracellular BCG", "value": 0, "unit": "%"}]}
{"smiles": "CCCCCCSc1ccc(SCCCCCC)c(O)c(=O)c1O", "note": "[#841]", "values": [{"measurement": "inhibition at 20 µM", "setting": "intracellular BCG", "value": 83.5, "unit": "%"}, {"measurement": "inhibition at 20 µM", "setting": "intracellular Mtb", "value": 91.5, "unit": "%"}, {"measurement": "Stability in mice liver microsomal studies", "setting": "[1]", "value": "stable"}, {"measurement": "Caco2 PappA > B", "setting": "Caco2", "value": "3.08E−06", "unit": "sec*cm^2"}, {"measurement": "Caco2 PappB > A", "setting": "Caco2", "value": "5.18E−06", "unit": "sec*cm^2"}, {"measurement": "GI absorption by Caco-2 in vitro testing", "setting": "Caco2", "value": "good GI absorption"}, {"measurement": "efflux ratio", "setting": "[2]", "value": 1.7}, {"measurement": "half-life", "setting": "[3]", "value": 7, "unit": "min"}, {"measurement": "Stability in human liver microsomal studies", "setting": "[3]", "value": "stable"}]}
{"smiles": "CCn1cc(C(=O)O)c(=O)c2cc(F)c(N3CCN(c4cccccc4=O)CC3)cc21", "note": "[#764]", "values": [{"measurement": "inhibition at 20 µM", "setting": "intracellular BCG", "value": 14.5, "unit": "%"}]}
{"smiles": "CC(C)c1nc(CN(C)C(=O)N[C@H](C(=O)N[C@@H](Cc2ccccc2)C[C@H](O)[C@H](Cc2ccccc2)NC(=O)OCc2cncs2)C(C)C)cs1", "note": "[Ritonavir, reference compound]", "values": [{"measurement": "half-life", "setting": "[3]", "value": "< 5", "unit": "min"}]}
